# Data published in patent US20100029479A1, “PESTICIDAL COMBINATIONS” (SYNGENTA CROP PROTECTION, INC., priority 2006, published 2010).
# Key:
# Ustilago = test: Ustilago, % pest incidence (seed treatment, field plots); type: in vivo; details: Antraquinone 50, combination 50 + 2 + 5 + 3 gai/100 kg seed
# Tilletia caries = test: Tilletia caries, number of ears infected (seed treatment, field plots); type: in vivo; details: Winter wheat/caphorn, Antraquinone 50, combination 50 + 2 + 5 + 3 gai/100 kg seed
smiles,measurement,setting,value
O=C1c2ccccc2C(=O)c2ccccc21 [Antraquinone],% Pest Incidence,"Ustilago; Trial 1, Winter barley var LL09OH05, plot 15 m^2, 210 DAP",18.1 (a) %
same,% Pest Incidence,"Ustilago; Trial 2, Winter barley var LL05OH05, plot 14.4 m^2, 205 DAP",5.6 (a) %
same,% Pest Incidence,"Ustilago; Trial 3, Winter barley, plot 14.4 m^2, 161 DAP",22.2 (a) %
same,Number of Ears Infected,"Tilletia caries; Trial 1, plot 15 m^2, 253 DAP",14.3 (a)
same,Number of Ears Infected,"Tilletia caries; Trial 2, plot 14.25 m^2, 220 DAP",232.3 (a)
same,Number of Ears Infected,"Tilletia caries; Trial 3, plot 15 m^2, 212 DAP",84.3 (a)
same,Number of Ears Infected,"Tilletia caries; Trial 4, plot 12 m^2, 192 DAP",56 (a)
